# Reference: patent US8697739B2, “Bicyclic acetyl-CoA carboxylase inhibitors and uses thereof” (Novartis AG, priority 2010, dated 2014)
# pIC50: −log10 of the molar value.
# Molecular target: T1, human acetyl-CoA carboxylase 2 (ACC2) (Homo sapiens, UniProt O00763)
# T1 construct: The cDNA encoding amino acids 144 to 2458 of human acetyl-CoA carboxylase 2; made in house; host or cells: Sf9 insect cells (baculovirus, pFastBac1)
# Test: Acetyl-CoA carboxylase enzyme assay (malonyl-CoA formation by LC/MS/MS)
# Assay type: biochemical
# Conditions: recombinant human ACC2 (aa 144-2458); read-out: IC50 ACC2
# Outline: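 Malonyl-CoA formation was read by LC/MS/MS MRM against a [13C3]-malonyl-CoA internal standard, after acetic acid quench. The enzyme was baculovirus/Sf9-expressed human ACC2 residues 144–2458, given 15 minutes room-temperature compound preincubation in HEPES pH 7.5 buffer with MgCl2, citrate and DTT. Substrate solution held 50 μM acetyl-CoA, 120 μM ATP and 2 mM KHCO3.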
# T1 sequence (O00763 144-2458): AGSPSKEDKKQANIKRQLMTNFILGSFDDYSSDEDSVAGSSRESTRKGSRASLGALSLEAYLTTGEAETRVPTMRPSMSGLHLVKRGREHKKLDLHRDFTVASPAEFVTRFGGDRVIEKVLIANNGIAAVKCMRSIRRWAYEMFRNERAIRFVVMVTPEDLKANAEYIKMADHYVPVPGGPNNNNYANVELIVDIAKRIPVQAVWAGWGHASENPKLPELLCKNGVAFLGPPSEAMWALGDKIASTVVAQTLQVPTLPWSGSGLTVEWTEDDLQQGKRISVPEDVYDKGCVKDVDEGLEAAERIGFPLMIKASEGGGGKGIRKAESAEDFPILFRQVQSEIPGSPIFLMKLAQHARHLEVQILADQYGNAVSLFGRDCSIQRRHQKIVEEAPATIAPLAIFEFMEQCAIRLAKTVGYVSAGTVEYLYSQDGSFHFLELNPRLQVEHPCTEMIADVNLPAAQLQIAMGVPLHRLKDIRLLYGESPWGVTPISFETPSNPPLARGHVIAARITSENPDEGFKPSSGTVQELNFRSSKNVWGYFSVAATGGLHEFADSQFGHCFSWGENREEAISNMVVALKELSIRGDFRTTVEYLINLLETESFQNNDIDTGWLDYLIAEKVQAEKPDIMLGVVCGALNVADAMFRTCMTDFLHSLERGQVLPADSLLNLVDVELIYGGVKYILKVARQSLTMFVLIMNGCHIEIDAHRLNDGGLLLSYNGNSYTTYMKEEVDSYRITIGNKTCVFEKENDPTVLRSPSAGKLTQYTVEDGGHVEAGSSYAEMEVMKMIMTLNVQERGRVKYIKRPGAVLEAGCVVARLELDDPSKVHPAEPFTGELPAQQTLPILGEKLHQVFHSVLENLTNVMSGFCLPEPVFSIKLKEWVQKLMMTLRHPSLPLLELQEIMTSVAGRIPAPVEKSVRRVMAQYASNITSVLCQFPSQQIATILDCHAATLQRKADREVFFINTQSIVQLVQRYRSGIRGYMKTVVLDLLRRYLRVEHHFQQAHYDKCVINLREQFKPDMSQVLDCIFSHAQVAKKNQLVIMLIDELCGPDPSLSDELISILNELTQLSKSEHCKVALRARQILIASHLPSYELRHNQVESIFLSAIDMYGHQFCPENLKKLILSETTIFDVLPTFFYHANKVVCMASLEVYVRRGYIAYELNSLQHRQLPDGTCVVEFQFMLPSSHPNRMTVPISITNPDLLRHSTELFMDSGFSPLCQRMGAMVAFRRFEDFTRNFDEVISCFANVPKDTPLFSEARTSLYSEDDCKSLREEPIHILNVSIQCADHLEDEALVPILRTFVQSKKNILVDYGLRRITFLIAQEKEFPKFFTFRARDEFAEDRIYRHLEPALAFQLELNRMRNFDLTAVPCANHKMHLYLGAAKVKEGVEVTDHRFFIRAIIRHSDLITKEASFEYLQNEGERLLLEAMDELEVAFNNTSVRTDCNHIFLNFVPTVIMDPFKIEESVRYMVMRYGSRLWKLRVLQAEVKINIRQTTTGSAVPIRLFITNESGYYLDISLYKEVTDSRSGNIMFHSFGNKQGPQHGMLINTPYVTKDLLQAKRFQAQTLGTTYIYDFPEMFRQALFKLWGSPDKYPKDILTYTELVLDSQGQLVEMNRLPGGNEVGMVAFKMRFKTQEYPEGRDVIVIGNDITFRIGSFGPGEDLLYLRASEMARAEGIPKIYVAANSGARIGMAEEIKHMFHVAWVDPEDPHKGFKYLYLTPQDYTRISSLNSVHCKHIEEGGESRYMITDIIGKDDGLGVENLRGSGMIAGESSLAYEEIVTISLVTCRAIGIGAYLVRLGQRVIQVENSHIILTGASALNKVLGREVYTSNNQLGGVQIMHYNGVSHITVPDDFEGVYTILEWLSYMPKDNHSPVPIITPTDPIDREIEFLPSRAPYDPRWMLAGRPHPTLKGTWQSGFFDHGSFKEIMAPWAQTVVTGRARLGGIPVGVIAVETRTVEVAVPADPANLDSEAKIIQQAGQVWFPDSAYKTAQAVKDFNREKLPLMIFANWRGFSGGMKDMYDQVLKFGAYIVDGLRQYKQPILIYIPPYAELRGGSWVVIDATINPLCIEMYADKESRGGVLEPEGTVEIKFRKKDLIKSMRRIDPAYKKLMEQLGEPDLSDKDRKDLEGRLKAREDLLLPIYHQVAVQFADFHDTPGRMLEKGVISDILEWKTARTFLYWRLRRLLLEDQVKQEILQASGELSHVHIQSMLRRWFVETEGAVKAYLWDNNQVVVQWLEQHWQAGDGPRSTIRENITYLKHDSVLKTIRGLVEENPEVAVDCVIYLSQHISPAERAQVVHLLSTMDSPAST
row,SMILES,pIC50
1,"CCN(C)C(=O)[C@H]1CC[C@H](NS(=O)(=O)c2ccc3cc(-c4ccc(CCC(=O)O)cc4)n(C)c3c2)CC1 [Example 365, 3-(4-(6-(N-((1r,4r)-4-(ethyl(methyl)carbamoyl)cyclohexyl)sulfamoyl)-1-methyl-1H-indol-2-yl)phenyl)propanoic acid]",6.39
2,"C[C@H]1COCCN1C(=O)[C@H]1CC[C@H](NS(=O)(=O)c2ccc3c(C#N)c(C4CC4)n(C)c3c2)CC1 [Example 421, 3-cyano-2-cyclopropyl-1-methyl-N-((1S,4r)-4-((S)-3-methylmorpholine-4-carbonyl)cyclohexyl)-1H-indole-6-sulfonamide]",7.30
3,"CC(C)c1nnc([C@H]2CC[C@H](NS(=O)(=O)c3ccc4[nH]c(Nc5ccc(N6CCN(C)CC6)cc5)nc4c3)CC2)o1 [Example 598, N-((1r,4r)-4-(5-isopropyl-1,3,4-oxadiazol-2-yl)cyclohexyl)-2-(4-(4-methylpiperazin-1-yl)phenylamino)-1H-benzo[d]imidazole-5-sulfonamide]",7.06
4,"CCCCOC(=O)c1ccc(NS(=O)(=O)c2ccc3nc(-c4ccccc4)[nH]c3c2)cc1 [Example 491, butyl 4-(2-phenyl-1H-benzo[d]imidazole-6-sulfonamido)benzoate]",5.95
5,"O=C(NC1Cc2ccccc2C1)[C@H]1CC[C@H](NS(=O)(=O)c2ccc3[nH]c(-c4ccccc4)nc3c2)CC1 [Example 638, (1r,4r)-N-(2,3-dihydro-1H-inden-2-yl)-4-(2-phenyl-1H-benzo[d]imidazole-5-sulfonamido)cyclohexanecarboxamide]",6.90
6,"COC(=O)[C@H]1CC[C@H](NS(=O)(=O)c2ccc3nc(-c4cc(C)nc(C)c4)ccc3c2)CC1 [Example 252, (1r,4r)-methyl 4-(2-(2,6-dimethylpyridin-4-yl)quinoline-6-sulfonamido)cyclohexanecarboxylate]",< 4.46
7,"Cc1ccccc1-c1cc2ccc(S(=O)(=O)N[C@H]3CC[C@H](C(=O)N4CCN[C@@H](C(F)(F)F)C4)CC3)cc2[nH]1 [Example 343, 2-o-tolyl-N-((1R,4r)-4-((R)-3-(trifluoromethyl)piperazine-1-carbonyl)cyclohexyl)-1H-indole-6-sulfonamide]",6.77
8,"CN1CCN(C)c2ncc(S(=O)(=O)N[C@H]3CC[C@H](C(=O)N4CCNCC4c4ccccc4)CC3)cc21 (some centres unmarked) [Example 183, 1,4-dimethyl-N-((1r,4r)-4-(2-phenylpiperazine-1-carbonyl)cyclohexyl)-1,2,3,4-tetrahydropyrido[3,2-b]pyrazine-7-sulfonamide]",6.87
9,"O=C1NCCCCC1NC(=O)[C@H]1CC[C@H](NS(=O)(=O)c2ccc3cc(-c4ccccc4)[nH]c3c2)CC1 (some centres unmarked) [Example 466, (1r,4r)-N-(2-oxoazepan-3-yl)-4-(2-phenyl-1H-indole-6-sulfonamido)cyclohexanecarboxamide]",8.00
10,"CC(C)(NC(=O)[C@H]1CC[C@H](NS(=O)(=O)c2ccc3[nH]c(-c4ccccc4)nc3c2)CC1)c1ccccc1 [Example 582, (1r,4r)-4-(2-phenyl-1H-benzo[d]imidazole-5-sulfonamido)-N-(2-phenylpropan-2-yl)cyclohexanecarboxamide]",6.60
11,"O=C([C@H]1CC[C@H](NS(=O)(=O)c2ccc3c(c2)CCCN3)CC1)N1CCNCC1c1ccccc1 (some centres unmarked) [Example 175, N-((1r,4r)-4-(2-phenylpiperazine-1-carbonyl)cyclohexyl)-1,2,3,4-tetrahydroquinoline-6-sulfonamide]",6.92
12,"Cn1c(-c2ccccc2)cc2cc(S(=O)(=O)N[C@H]3CC[C@H](C(=O)N4CCN[C@@H](C(F)(F)F)C4)CC3)ccc21 [Example 87, 1-methyl-2-phenyl-N-((1R,4r)-4-((R)-3-(trifluoromethyl)piperazine-1-carbonyl)cyclohexyl)-1H-indole-5-sulfonamide]",7.00
13,"C[C@H]1CCCCN1C(=O)[C@H]1CC[C@H](NS(=O)(=O)c2ccc3c(C#N)c(C4CC4)n(C)c3c2)CC1 [Example 382, 3-cyano-2-cyclopropyl-1-methyl-N-((1S,4r)-4-((S)-2-methylpiperidine-1-carbonyl)cyclohexyl)-1H-indole-6-sulfonamide]",7.02
14,"C[C@@H](NC(=O)[C@H]1CC[C@H](NS(=O)(=O)c2ccc3[nH]c(-c4ccccc4)cc3c2)CC1)c1ccccc1 [Example 13, (1r,4R)-4-(2-phenyl-1H-indole-5-sulfonamido)-N—((R)-1-phenylethyl)cyclohexanecarboxamide]",7.19
15,"C[C@@H](NC(=O)[C@H]1CC[C@@H](NS(=O)(=O)c2ccc3ccccc3c2)CC1)c1ccc(F)cc1 [Example 147, (1s,4S)-N-((R)-1-(4-fluorophenyl)ethyl)-4-(naphthalene-2-sulfonamido)cyclohexanecarboxamide]",< 4.46
16,"C[C@@H](NC(=O)[C@H]1CC[C@H](NS(=O)(=O)c2ccc3c(c2)NC(=O)CO3)CC1)c1ccc(F)cc1 [Example 112, (1r,4R)-N-((R)-1-(4-fluorophenyl)ethyl)-4-(3-oxo-3,4-dihydro-2H-benzo[b][1,4]oxazine-6-sulfonamido)cyclohexanecarboxamide]",6.46
17,"Cn1c(-c2ccccc2)cc2cc(S(=O)(=O)N[C@H]3CC[C@H](C(=O)N4CC(C(=O)O)CCC4c4ccccc4)CC3)ccc21 (some centres unmarked) [Example 90, 1-((1r,4r)-4-(1-methyl-2-phenyl-1H-indole-5-sulfonamido)cyclohexanecarbonyl)-6-phenylpiperidine-3-carboxylic acid]",6.59
18,"O=C([C@H]1CC[C@H](NS(=O)(=O)c2cnc3ccccc3c2)CC1)N1CCNCC1c1ccccc1 (some centres unmarked) [Example 61, N-((1r,4r)-4-(2-phenylpiperazine-1-carbonyl)cyclohexyl)quinoline-3-sulfonamide]",7.01
19,"CC(=O)c1cccc(-c2nc3ccc(S(=O)(=O)Nc4ccc(C(=O)OC(C)C)cc4)cc3[nH]2)c1 [Example 494, isopropyl 4-(2-(3-acetylphenyl)-1H-benzo[d]imidazole-6-sulfonamido)benzoate]",5.72
20,"CC(C)OC(=O)C1(C)CCC(NS(=O)(=O)c2ccc3c(ccn3C)c2)CC1 (centres unmarked) [Example 388, isopropyl 1-methyl-4-(1-methyl-1H-indole-5-sulfonamido)cyclohexanecarboxylate]",6.96
21,"COCCc1ccc(-c2cc3ccc(S(=O)(=O)N[C@H]4CC[C@H](C(=O)N5CCOC[C@@H]5C(C)C)CC4)cc3[nH]2)cc1 [Example 460, N-((1S,4r)-4-((S)-3-isopropylmorpholine-4-carbonyl)cyclohexyl)-2-(4-(2-methoxyethyl)phenyl)-1H-indole-6-sulfonamide]",> 8.00
22,"CC(NC(=O)[C@H]1CC[C@H](NS(=O)(=O)c2cnc3ccccc3c2)CC1)c1ccc(C(F)(F)F)cc1 (some centres unmarked) [Example 45, (1r,4r)-4-(quinoline-3-sulfonamido)-N-(1-(4-(trifluoromethyl)phenyl)ethyl)cyclohexanecarboxamide]",< 4.46
23,"CC(C)N(C)C(=O)[C@H]1CC[C@H](NS(=O)(=O)c2ccc3[nH]c(Nc4ccccc4)nc3c2)CC1 [Example 7, (1r,4r)-N-isopropyl-N-methyl-4-(2-(phenylamino)-1H-benzo[d]imidazole-5-sulfonamido)cyclohexanecarboxamide]",7.15
